This note sets out measurements from patent publication US10851067B2, “Kv7 channel activators compositions and methods of use” (Knopp Biosciences LLC, priority 2018, dated 2020).

Each structure is given as a SMILES string. Where only a bound is given, the exact number is not on record here.

One assay has as its target T1, Kv7.2/7.3 (Homo sapiens, UniProt O43525+O43526). Description: Kv7.2/7.3 FluxOR Potassium Ion Channel Assay (Invitrogen, F20015). It counts as cell-based.
Conditions: not given
In the case of `CCOC(=O)Nc1ccc(NCc2ccc(F)cc2)cc1N` [ezogabine], the EC50 turned out to be 1100 nM.

The next assay concerns the target T1, Kv7.2/7.3. As to the kind of experiment: Kv7.2/7.3 Thallium Flux Assay. It counts as cell-based. Also noted: host or cells: HEK cells, tetracycline-inducible expression. As to conditions: read-out: Kv7.2/7.3 Activity: EC50 of Kv7.2/Kv7.3 activation. Put shortly: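 Tetracycline-induced (10 ng/mL) hKv7.2/7.3 cell line tested over eight concentrations, 0.014–30 μM, in 0.1% DMSO extracellular solution; FluxOR II thallium-sensitive dye read at Ex 475/Em 530 nm. After 15 sec baseline, thallium/potassium stimulus injected, endpoint at 90 sec; responses normalized to retigabine ([…] max), Hill fit gave EC50 and maximal response.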
Take `CC(C)(O)c1ccc2nc(NC(=O)Cc3ccc(F)cc3F)n(C3(C)CCC3)c2c1` [Example 505, 2-(2,4-difluorophenyl)-N-(6-(2-hydroxypropan-2-yl)-1-(1-methylcyclobutyl)-1H-benzo[d]imidazol-2-yl)acetamide]: the EC50 is less than 1000 nM.

Regarding `CC(C)(C)CC(=O)Nc1nc2ccc(C#N)c(C(F)(F)F)c2n1C1CCC1` [Example 507, N-(6-cyano-1-cyclobutyl-7-(trifluoromethyl)-1H-benzo[d]imidazol-2-yl)-3,3-dimethylbutanamide], the EC50 is less than 1000 nM.

Regarding `COc1cc(C#N)cc2c1nc(NC(=O)C13CCC(C1)C3)n2C(C)(C)C` [Example 510, N-(1-(tert-butyl)-6-cyano-4-methoxy-1H-benzo[d]imidazol-2-yl)bicyclo[2.1.1]hexane-1-carboxamide], the EC50 lay within 1000 to 3000 nM.

Turning to `CC(C)(O)c1ccc2nc(NC(=O)CC34CC(C3)C4)n(C3(C)CCC3)c2c1` [Example 511, 2-(bicyclo[1.1,1]pentan-1-yl)-N-(6-(2-hydroxypropan-2-yl)-1-(1-methylcyclobutyl)-1H-benzo[d]imidazol-2-yl)acetamide], the EC50 was less than 1000 nM.

Turning to `COc1cc(C#N)cc2c1nc(NC(=O)CC1CC(F)(F)C1(F)F)n2C(C)(C)C` (centres unmarked) [Example 514, N-(1-(tert-butyl)-6-cyano-4-methoxy-1H-benzo[d]imidazol-2-yl)-2-(2,2,3,3-tetrafluorocyclobutyl)acetamide], the EC50 was less than 1000 nM.

Turning to `CC(C)(C)CC(=O)Nc1nc2cccc(OC(F)(F)F)c2n1C1CCC1` [Example 516, N-(1-cyclobutyl-7-(trifluoromethoxy)-1H-benzo[d]imidazol-2-yl)-3,3-dimethylbutanamide], the EC50 was less than 1000 nM.

Regarding `CC(C)(C)CC(=O)Nc1nc2c(F)cc(C#N)c(F)c2n1C1(C)CCC1` [Example 517, N-(6-cyano-4,7-difluoro-1-(1-methylcyclobutyl)-1H-benzo[d]imidazol-2-yl)-3,3-dimethylbutanamide], the EC50 was less than 1000 nM.

As for `CC(C)(CC(=O)Nc1nc2ccc(C#N)cc2n1C1CCC1)c1ccccn1` [Example 518, N-(6-cyano-1-cyclobutyl-1H-benzo[d]imidazol-2-yl)-3-methyl-3-(pyridin-2-yl)butanamide], the EC50 fell in the range of 1000 to 3000 nM.

For `COc1cc(C#N)cc2c1nc(NC(=O)CC1(C(F)(F)F)CC1)n2C(C)(C)C` [Example 520, N-(1-(tert-butyl)-6-cyano-4-methoxy-1H-benzo[d]imidazol-2-yl)-2-(1-(trifluoromethyl)cyclopropyl)acetamide], the EC50 is 3000 to 10000 nM.

As for `[2H]C([2H])([2H])C(CC(=O)Nc1nc2c(F)cc(C#N)cc2n1C1(C)CCC1)(C([2H])([2H])[2H])C([2H])([2H])[2H]` [Example 521, N-(6-cyano-4-fluoro-1-(1-methylcyclobutyl)-1H-benzo[d]imidazol-2-yl)-3,3-bis(methyl-d3)butanamide], the EC50 was less than 1000 nM.

For `CC1(n2c(NC(=O)CC3(C(F)(F)F)CC3)nc3cc(F)cc(F)c32)CCC1` [Example 522, N-(5,7-difluoro-1-(1-methylcyclobutyl)-1H-benzo[d]imidazol-2-yl)-2-(1-(trifluoromethyl)cyclopropyl)acetamide], the EC50 was less than 1000 nM.

As for `CC(C)(CC(=O)Nc1nc2cc(F)ccc2n1C1(C)CCC1)C(F)F` [Example 524, 4,4-difluoro-N-(5-fluoro-1-(1-methylcyclobutyl)-1H-benzo[d]imidazol-2-yl)-3,3-dimethylbutanamide], the EC50 is less than 1000 nM.

On to `CC1(n2c(NC(=O)CC3(C(F)(F)F)CC3)nc3cc(F)ccc32)CCC1` [Example 527, N-(5-fluoro-1-(1-methylcyclobutyl)-1H-benzo[d]imidazol-2-yl)-2-(1-(trifluoromethyl)cyclopropyl)acetamide], for which the EC50 is less than 1000 nM.

With `CC(C)(C)n1c(NC(=O)CC(C)(C)C(F)(F)F)nc2cc(F)cc(F)c21` [Example 530, N-(1-(tert-butyl)-5,7-difluoro-1H-benzo[d]imidazol-2-yl)-4,4,4-trifluoro-3,3-dimethylbutanamide], the EC50 is less than 1000 nM.

As to `CC(C)(C)n1c(NC(=O)CC2(C(F)(F)F)CC2)nc2cc(F)cc(F)c21` [Example 531, N-(1-(tert-butyl)-5,7-difluoro-1H-benzo[d]imidazol-2-yl)-2-(1-(trifluoromethyl)cyclopropyl)acetamide], the EC50 is less than 1000 nM.

As to `CC(C)(CC(=O)Nc1nc2cc(F)c(F)cc2n1C1(C)CCC1)C(F)F` [Example 533, N-(5,6-difluoro-1-(1-methylcyclobutyl)-1H-benzo[d]imidazol-2-yl)-4,4-difluoro-3,3-dimethylbutanamide], the EC50 was less than 1000 nM.

As for `CC1(n2c(NC(=O)CC3(C(F)(F)F)CC3)nc3cc(F)c(F)c(F)c32)CCC1` [Example 534, N-(5,6,7-trifluoro-1-(1-methylcyclobutyl)-1H-benzo[d]imidazol-2-yl)-2-(1-(trifluoromethyl)cyclopropyl)acetamide], the EC50 was less than 1000 nM.

As to `CC1(n2c(NC(=O)CC3(C(F)(F)F)CC3)nc3cc(F)c(F)cc32)CCC1` [Example 538, N-(5,6-difluoro-1-(1-methylcyclobutyl)-1H-benzo[d]imidazol-2-yl)-2-(1-(trifluoromethyl)cyclopropyl)acetamide], the EC50 was less than 1000 nM.

As for `CC(C)(CC(=O)Nc1nc2ccc(F)c(C#N)c2n1C1(C)CCC1)C1CC1` [Example 541, N-(7-cyano-6-fluoro-1-(1-methylcyclobutyl)-1H-benzo[d]imidazol-2-yl)-3-cyclopropyl-3-methylbutanamide], the EC50 is less than 1000 nM.

Take `CC(C)(CC(=O)Nc1nc2cc(F)cc(C#N)c2n1C1(C)CCC1)C1CC1` [Example 547, N-(7-cyano-5-fluoro-1-(1-methylcyclobutyl)-1H-benzo[d]imidazol-2-yl)-3-cyclopropyl-3-methylbutanamide]: the EC50 is less than 1000 nM.

As for `CC(C)(C)CC(=O)Nc1nc2ccc(F)c(Br)c2n1C1(C)CCC1` [Example 550, N-(7-bromo-6-fluoro-1-(1-methylcyclobutyl)-1H-benzo[d]imidazol-2-yl)-3,3-dimethylbutanamide], the EC50 is less than 1000 nM.

Take `C=Cc1c(F)ccc2nc(NC(=O)CC(C)(C)C)n(C3CCC3)c12` [Example 552, N-(1-cyclobutyl-6-fluoro-7-vinyl-1H-benzo[d]imidazol-2-yl)-3,3-dimethylbutanamide]: the EC50 is less than 1000 nM.

For the compound `COc1cc(C#N)cc2c1nc(NC(=O)CC(C)(C)C(F)(F)F)n2C1(C)CCC1` [Example 554], the EC50 was less than 1000 nM.

In the case of `CC1(n2c(NC(=O)CC(C)(C)C(F)(F)F)nc3ccc(Cl)c(F)c32)CCC1` [Example 555, N-(6-chloro-7-fluoro-1-(1-methylcyclobutyl)-1H-benzo[d]imidazol-2-yl)-4,4,4-trifluoro-3,3-dimethylbutanamide], the EC50 was less than 1000 nM.

For the compound `CC1(n2c(NC(=O)CC3(C(F)(F)F)CC3)nc3c(F)cc(C#N)cc32)CCC1` [Example 561, N-(6-cyano-4-fluoro-1-(1-methylcyclobutyl)-1H-benzo[d]imidazol-2-yl)-2-(1-(trifluoromethyl)cyclopropyl)acetamide], the EC50 was less than 1000 nM.
